Broadly, the IC50 is the point on the concentration scale where inhibition reaches its midpoint.

Some results are limits rather than exact numbers.

The target in the experiment is T1, recombinant hPTP1B (human PTP1B, 1-299 aa) (Homo sapiens, UniProt P18031).
T1 construct: without the carboxy-terminal hydrophobic region (corresponding to 1-299 aa); made in house; host or cells: Sf9 insect cells (baculovirus, Bac-to-Bac, pFASTBAC)
T1 sequence (P18031 1-299): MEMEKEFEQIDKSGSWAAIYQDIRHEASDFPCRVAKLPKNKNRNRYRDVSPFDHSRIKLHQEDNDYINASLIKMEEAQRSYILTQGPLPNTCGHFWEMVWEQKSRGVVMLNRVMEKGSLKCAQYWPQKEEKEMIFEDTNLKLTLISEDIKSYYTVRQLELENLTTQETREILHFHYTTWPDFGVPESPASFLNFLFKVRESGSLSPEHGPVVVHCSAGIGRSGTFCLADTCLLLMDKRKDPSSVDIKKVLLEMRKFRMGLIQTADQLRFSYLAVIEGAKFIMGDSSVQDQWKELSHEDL
Nature of the experiment: Enzymatic test systems for detecting inhibition of a phosphatase (in vitro assay). To be noted: Table 2 does not say which substrate (phosphopeptide or p-nitrophenyl phosphate). It is filed as biochemical. The procedure: Enzymatic Test Systems for Detecting Inhibition of a Phosphatase
The compounds of the formula I were tested for their phosphatase-inhibiting effect in an in vitro assay. The enzyme preparation and the performance of the assay was carried out as follows.
• Sf9 cells (=Spodoptera frugiperda cell type; obtainable from invitrogen) are cultured in Grace's supplemented medium (Gibco-BRL) with 10% heat-inactivated fetal calf serum (Gibco-BRL) in spinner flasks at 28° C. in accordance with the protocol of Summers and Smith (A Manual for Methods for Baculoviruns Vectors and Insect Culture Procedures [Bulletin No. 15555]. Texas A & M University, Texas Agricultural Experiment Station, College Station, Tex., 1987). • Construction of recombinant Baculovirus transfer vectors: cDNA coding for the regulatory and catalytic domains of human PTP1B, but without the carboxy-terminal hydrophobic region (corresponding to 1-299 aa) was obtained by polymerase chain reaction via primers with attached cloning sites and suitable cDNA templates (obtainable for example from invitrogen) and then cloned into baculovirus expression vectors (Amersham Pharmacia Biotech.). The recombinant baculoviruses were prepared with the aid of the Bac-to-Bac baculovirus expression system (obtainable from Gibco-BRL). The gene was cloned into the pFASTBAC donor plasmid (obtainable from Life Technologies). The resulting plasmid was transformed into competent DH10BAC Escherichia coli cells (obtainable from Life Technologies). After transposition and antibiotic selection, the recombinant plasmid DNA was isolated from selected E. coli colonies and then used for the transfection of Sf9 insect cells. The virus particle in the supernatant medium was amplified three times up to a viral stock volume of 500 ml. B) Production of Recombinant Protein: • Baculovirus infection of a 500 ml spinner culture of Sf9 cells was essentially carried out as described by Summers and Smith (see above). Sf9 cells at a density of 1–3×10^6 cells/ml were pelleted by centrifugation at 300 g for 5 min, the supernatant was removed, and the cells were resuspended in a density of 1×10^7 cells/ml in a suitable recombinant viral stock (MOI 10). After careful shaking at room temperature for 1.5 h, fresh medium was added in order to achieve a cell density of 1×10^6 cells/ml. The cells were then cultured in the suspension at 28° C. for suitable periods after postinfection. C) Cellular Fractionation and Complete Cell Extracts of Infected Sf9 Cells: • After the postinfection, aliquots were subjected to an analysis of protein expression by SDS-PAGE and Western blot analysis. The cellular fractionation was carried out as described (Cromlish, W. and Kennedy, B. Biochem. Pharmacol. 52: 1777–1785, 1996). Complete cell extracts were obtained from 1 ml aliquots of the infected Sf9 cells after certain times postinfection. The pelleted cells (300×g, 5 min) were washed once in phosphate-buffered saline (4° C.), resuspended in 50 μl of water and disrupted by repeated freezing/thawing. Protein concentrations were determined with the aid of the Bradford method and bovine serum albumin as standard. Assay Procedure: A) Dephosphorylation of a Phosphopeptide: • This assay is based on the release of phosphate from a consensus substrate peptide which is detected in the nanomolar concentration range by the malachite green/ammonium molybdate method (Lanzetta, P. A., Alvarez, L. J., Reinach, P. S., Candia, O. A. Anal Biochem. 100: 95–97, 1979) adapted for the microtiter plate format. The dodecatrisphosphopeptide TRDIYETDYYRK (Biotrend, Cologne) corresponds to amino acids 1142–1153 of the catalytic domain of the insulin receptor and is (auto)phosphorylated on tyrosine residues 1146, 1150 and 1151. […]
As for `O=S1(=O)Cc2cc(Nc3nc(-c4ccc(Cl)c(Cl)c4)cs3)ccc2N1` [Example 2], the IC50 was determined as 27.8 µM.
The value for `O=S1(=O)Cc2cc(Nc3nc(-c4ccc5ccccc5c4)cs3)ccc2N1` [Example 3] was 8.8 µM.
The result for `O=S1(=O)Cc2cc(Nc3nc(-c4ccc(Br)cc4)cs3)ccc2N1` [Example 4] reads 6.2 µM; that for `Cc1sc(Nc2ccc3c(c2)CS(=O)(=O)N3)nc1-c1ccccc1` [Example 5], 15.9 µM; that for `COc1ccc(-c2csc(Nc3ccc4c(c3)CS(=O)(=O)N4)n2)c(OC)c1` [Example 6], 48 µM.
The result for `O=S1(=O)Cc2cc(Nc3nc(-c4cccc(Br)c4)cs3)ccc2N1` [Example 7] reads 7.9 µM.
With `O=S1(=O)Cc2cc(Nc3nc(-c4ccc(N5CCCC5)cc4)cs3)ccc2N1` [Example 8], the IC50 came to 5.9 µM.
As for `COc1cccc(-c2csc(Nc3ccc4c(c3)CS(=O)(=O)N4)n2)c1` [Example 9], the IC50 stood at 6.3 µM.
The result for `Cc1c(-c2csc(Nc3ccc4c(c3)CS(=O)(=O)N4)n2)sc2ccc(Cl)cc12` [Example 10] reads 5.3 µM; that for `Cc1c(-c2csc(Nc3ccc4c(c3)CS(=O)(=O)N4)n2)sc2ccccc12` [Example 11], 6.2 µM.
The value for `O=S1(=O)Cc2cc(Nc3nc(-c4ccncc4)cs3)ccc2N1` [Example 13] was > 80 µM; that for `CC(C)(C)c1cc(-c2csc(Nc3ccc4c(c3)CS(=O)(=O)N4)n2)cc(C(C)(C)C)c1O` [Example 14] was 2.77 µM.

(Values after patent publication US7094794B2, “Substituted thiazole-benzoisothiazole dioxide derivatives, process for their preparation and their use” (Sanofi-Aventis Deutschland GmbH, priority 2003, dated 2006).)
